Measured values from patent US11214803B2, “Modulators of YAP1 expression” (Ionis Pharmaceuticals, Inc., priority 2019, dated 2022).
Marks after values point to notes of the source that are not given here. Strand notation (5' to 3'): a small letter for the sugar, then the base; units joined by * are phosphorothioate-linked, units joined directly phosphodiester-linked; [ ] holds rarer units or linkages, { } end groups; capitals alone tell only the bases. k = constrained ethyl (cEt); [5mC] = 5-methylcytosine; d = 2'-deoxy (DNA)

Tests used:
[1] = Tolerability in Sprague-Dawley rats, body and organ weights (Example 20); assay type: in vivo; details: male Sprague-Dawley rats, 50 mg/kg s.c. weekly for 6 weeks (7 doses); for Kidney weight / Liver weight / Spleen weight: end of study; for body weight: terminal, prior to necropsy
Experimental: (§1) Terminal body weight was measured prior to necropsy. Ionis oligonucleotides that caused any changes in organ weights outside the expected range for modified oligonucleotides were excluded from further studies.

[2] = Tolerability in Sprague-Dawley rats, plasma chemistry markers (Example 20); assay type: in vivo; details: male Sprague-Dawley rats, 50 mg/kg s.c. weekly for 6 weeks (7 doses), 48 hours after last dose
Experimental: (§2) Sprague-Dawley rats are a multipurpose model used for safety and efficacy evaluations. The rats were treated with Ionis modified oligonucleotides from the studies described in the Examples above and evaluated for changes in the levels of various plasma chemistry markers.

Yap1 mRNA [3] = test: Antisense inhibition of human Yap1 in A-431 cells by cEt gapmers, single dose (Example 3, RTS36584); assay type: cell-based
How it was run: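 Free uptake, 2,000 nM, ~48 h, A-431 cells. Gapmers: 16-mer 3-10-3 cEt wings, PS backbone, 5-MeC. Readout qRT-PCR, RiboGreen-normalized, % UTC.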

SNU449 cells = test: Cell proliferation assay in SNU449 cells in combination with sorafenib, CellTiter-Glo (Example 48); assay type: cell-based, human; details: 144 hours
Experimental: Modified oligonucleotides described in the studies above were tested at various doses in hepatocellular carcinoma cell line SNU449. ION No. 792169, described herein above, was used as a control modified oligonucleotide. ION No. 715487 was used to target Yap1 RNA. […] After approximately 48 hours, Yap1 mRNA levels were measured.
144 hours post treatment, proliferation of SNU449 cells was measured using the luminescent cell viability CellTiter-Glo® 2.0 Assay (Promega). Results are presented in the tables below as percent control of the amount of luminescence in samples treated with modified oligonucleotides relative to untreated control cells (% UTC).

Yap1 mRNA [4] = test: Yap1 mRNA levels in SNU449 xenograft tumors, alone and in combination with sorafenib (second Example 30); assay type: in vivo, human; details: SNU449 xenograft mice, oligonucleotide 50 mg/kg, sorafenib 30 mg/kg orally, tumors collected day 119 post implantation, relative to PBS
Experimental: Modified oligonucleotides described in the studies above were tested in a hepatocellular carcinoma SNU449 xenograft tumor model. In addition to testing the modified oligonucleotide by itself, combination therapy with sorafenib was also tested. A control oligonucleotide 792169, described herein above, was also tested.
Five million SNU449 cells in 30% matrigel were implanted subcutaneously into the fatpads of female NOD.Cg-Prkdcscid II2rgtmlWjl/SzJ mice (from Jackson Laboratory) at 4-6 weeks of age. 43 days post implantation (when tumors had reached approximately 100 mm^3 in size), groups of eight mice each were administered with 50 mg/kg modified oligonucleotide daily for 10 days (loading dose), following which they were administered with 50 mg/kg modified oligonucleotide four times a week for one week, following which they were dosed with 50 mg/kg modified oligonucleotide thrice weekly until the end of the study. […] Animals were sacrificed, and tumors were collected on day 119 post implantation.
Yap1 mRNA knockdown in tumors was measured by RT-qPCR as previously described using the Human Yap1 primer-probe set RTS4814. Yap1 mRNA levels were normalized to actin-beta content, as measured by primer probe set RTS5002. Results are presented in the tables below as percent control of the amount of Yap1 mRNA relative to PBS treated animals (% control).

[5] = Tolerability in Sprague-Dawley rats, plasma chemistry markers (Example 21); assay type: in vivo; details: male Sprague-Dawley rats, 50 mg/kg s.c. weekly for 6 weeks (7 doses), 48 hours after last dose
Experimental: as §2

[6] = Tolerability in Sprague-Dawley rats, body and organ weights (Example 21); assay type: in vivo; details: male Sprague-Dawley rats, 50 mg/kg s.c. weekly for 6 weeks (7 doses); for Kidney weight / Liver weight / Spleen weight: end of study; for body weight: terminal, prior to necropsy
Experimental: as §1

[7] = oligonucleotide at 0.04 uM, sorafenib 0 uM
[8] = oligonucleotide at 0.04 uM, sorafenib 0.37 uM
[9] = oligonucleotide at 0.04 uM, sorafenib 3.33 uM
[10] = oligonucleotide at 0.04 uM, sorafenib 10 uM
[11] = oligonucleotide at 0.04 uM, sorafenib […]
[12] = oligonucleotide at 0.2 uM, sorafenib 0 uM
[13] = oligonucleotide at 0.2 uM, sorafenib 0.37 uM
[14] = oligonucleotide at 0.2 uM, sorafenib 3.33 uM
[15] = oligonucleotide at 0.2 uM, sorafenib 10 uM
[16] = oligonucleotide at 0.2 uM, sorafenib […]
[17] = oligonucleotide at 1 uM, sorafenib 0 uM
[18] = oligonucleotide at 1 uM, sorafenib 0.37 uM
[19] = oligonucleotide at 1 uM, sorafenib 3.33 uM
[20] = oligonucleotide at 1 uM, sorafenib 10 uM
[21] = oligonucleotide at 1 uM, sorafenib […]
[22] = oligonucleotide at 5 uM, sorafenib 0 uM
[23] = oligonucleotide at 5 uM, sorafenib 0.37 uM
[24] = oligonucleotide at 5 uM, sorafenib 3.33 uM
[25] = oligonucleotide at 5 uM, sorafenib 10 uM
[26] = oligonucleotide at 5 uM, sorafenib […]

Substance “958499 (ATTAGAGTATGTGGCA; 3-10-3 cEt gapmer, further chemistry not given here) [compound 958499]” has a Kidney weight [1] of 3.1 g, a Liver weight [1] of 14 g and a Spleen weight [1] of 2.8 g. The body weight [1] was 333 g, the ALB [2] was 2.78 g/dL and the ALT [2] was 61 U/L. It also gave an AST [2] of 109 U/L, a BUN [2] of 24 mg/dL and a TBIL [2] of 0.18 mg/dL. For the same substance, the “YAP1 (% UTC)” value (Yap1 mRNA [3]; Table 26, Yap1 mRNA by 3-10-3 cEt gapmers targeting SEQ ID NO.: 1, and 2, percent of untreated control) was 1 % UTC, the “YAP1 (% UTC)” value (Yap1 mRNA [3]; Table 27, Yap1 mRNA by 3-10-3 cEt gapmers targeting SEQ ID NO.: 1, and 2, percent of untreated control) was 2 % UTC and the “YAP1 (% UTC)” value (Yap1 mRNA [3]; Table 28, Yap1 mRNA as percent of untreated control, 3-10-3 cEt gapmers targeting SEQ ID NO.: 1, and 2) was 2 % UTC. For the same substance, the “YAP1 (% UTC)” value (Yap1 mRNA [3]; Table 29, Yap1 mRNA as percent of untreated control, 3-10-3 cEt gapmers targeting SEQ ID NO.: 1, and 2) was 2 % UTC, the “YAP1 (% UTC)” value (Yap1 mRNA [3]; Table 34, Yap1 mRNA as percent of untreated control, 3-10-3 cEt gapmers targeting SEQ ID NO: 1 and 2, single dose) was 1 % UTC and the “YAP1 (% UTC)” value (Yap1 mRNA [3]; Table 35, Yap1 mRNA as percent of untreated control, 3-10-3 cEt gapmers targeting SEQ ID NO: 1 and 2, single dose) was 2 % UTC.

In the case of “958499 (kA*kT*kT*dA*dG*dA*dG*dT*dA*dT*dG*dT*dG*kG*k[5mC]*kA) [Compound 958499]”, the “YAP1 (% UTC)” value (Yap1 mRNA [3]; Table 12, A-431 cells, 5,000 cells per well, free uptake, 2,000 nM modified oligonucleotide, approx. 48 hours, RTS36584, normalized to RIBOGREEN, Yap1 mRNA relative to untreated control cells) is reported as 1 % UTC.

With “715487 (kA*kT*kT*dA*d[5mC]*dT*dT*d[5mC]*dA*dT*dA*dG*d[5mC]*kT*kT*kA) [compound 715487]” the “Antiproliferative effect (cell proliferation, luminescence)” value (shortened to “Antiproliferative effect”) (SNU449 cells; [7]) was 98 % UTC, the “Antiproliferative effect” value (SNU449 cells; [8]) was 102 % UTC and the “Antiproliferative effect” value (SNU449 cells; [9]) was 27 % UTC. The “Antiproliferative effect” value (SNU449 cells; [10]) was 2 % UTC, the “Antiproliferative effect” value (SNU449 cells; [11]) was 93 % UTC and the “Antiproliferative effect” value (SNU449 cells; [12]) was 93 % UTC. For the same substance, the “Antiproliferative effect” value (SNU449 cells; [13]) was 94 % UTC, the “Antiproliferative effect” value (SNU449 cells; [14]) was 12 % UTC and the “Antiproliferative effect” value (SNU449 cells; [15]) was 2 % UTC. For the same substance, the “Antiproliferative effect” value (SNU449 cells; [16]) was 77 % UTC, the “Antiproliferative effect” value (SNU449 cells; [17]) was 84 % UTC and the “Antiproliferative effect” value (SNU449 cells; [18]) was 83 % UTC. The “Antiproliferative effect” value (SNU449 cells; [19]) was 5 % UTC, the “Antiproliferative effect” value (SNU449 cells; [20]) was 1 % UTC and the “Antiproliferative effect” value (SNU449 cells; [21]) was 45 % UTC. For the same substance, the “Antiproliferative effect” value (SNU449 cells; [22]) was 64 % UTC, the “Antiproliferative effect” value (SNU449 cells; [23]) was 64 % UTC and the “Antiproliferative effect” value (SNU449 cells; [24]) was 3 % UTC. For the same substance, the “Antiproliferative effect” value (SNU449 cells; [25]) was 1 % UTC and the “Antiproliferative effect” value (SNU449 cells; [26]) was 23 % UTC.

In the case of “1198440 (AAGTGTATGTCAGAAG; cEt, 2'-MOE, 5-methylcytosine, phosphorothioate modifications, further chemistry not given here) [compound 1198440]”, the “Yap1 mRNA levels in tumors” value (Yap1 mRNA [4]) is reported as 34 % control, the ALT [5] is reported as 58** U/L and the AST [5] is reported as 108** U/L. The BUN [5] was 20** mg/dL, the TBIL [5] was 0.17** mg/dL and the Kidney weight [6] was 3.29 g. It also gave a Liver weight [6] of 18 g, a Spleen weight [6] of 2.78 g and a body weight [6] of 373 g.

For “1198439 (AGTGTATGTCAGAAGA; sugar, 5-methylcytosine, phosphorothioate modifications, further chemistry not given here) [compound 1198439]”, the ALT [5] was 54* U/L, the AST [5] was 94* U/L and the BUN [5] was 22* mg/dL. For the same substance, the TBIL [5] was 0.15* mg/dL, the Kidney weight [6] was 3.68* g and the Liver weight [6] was 17* g. For the same substance, the Spleen weight [6] was 2.28* g and the body weight [6] was 319* g.

With “CGCCGATAAGGTACAC (cEt gapmer, phosphorothioate backbone, further chemistry not given here) [ION 792169, reference compound]” the “Yap1 mRNA levels in tumors” value (Yap1 mRNA [4]) was 90 % control, the “Antiproliferative effect” value (SNU449 cells; [7]) was 99 % UTC and the “Antiproliferative effect” value (SNU449 cells; [8]) was 103 % UTC. For the same substance, the “Antiproliferative effect” value (SNU449 cells; [9]) was 51 % UTC, the “Antiproliferative effect” value (SNU449 cells; [10]) was 3 % UTC and the “Antiproliferative effect” value (SNU449 cells; [11]) was 97 % UTC. For the same substance, the “Antiproliferative effect” value (SNU449 cells; [12]) was 97 % UTC, the “Antiproliferative effect” value (SNU449 cells; [13]) was 100 % UTC and the “Antiproliferative effect” value (SNU449 cells; [14]) was 30 % UTC. For the same substance, the “Antiproliferative effect” value (SNU449 cells; [15]) was 4 % UTC, the “Antiproliferative effect” value (SNU449 cells; [16]) was 91 % UTC and the “Antiproliferative effect” value (SNU449 cells; [17]) was 97 % UTC. For the same substance, the “Antiproliferative effect” value (SNU449 cells; [18]) was 95 % UTC, the “Antiproliferative effect” value (SNU449 cells; [19]) was 27 % UTC and the “Antiproliferative effect” value (SNU449 cells; [20]) was 3 % UTC. For the same substance, the “Antiproliferative effect” value (SNU449 cells; [21]) was 89 % UTC, the “Antiproliferative effect” value (SNU449 cells; [22]) was 86 % UTC and the “Antiproliferative effect” value (SNU449 cells; [23]) was 84 % UTC. The “Antiproliferative effect” value (SNU449 cells; [24]) was 6 % UTC, the “Antiproliferative effect” value (SNU449 cells; [25]) was 1 % UTC and the “Antiproliferative effect” value (SNU449 cells; [26]) was 68 % UTC.

“1076453 (GTAATATTGCAATCTG; 3-10-3 cEt gapmer, further chemistry not given here) [compound 1076453]” showed a Kidney weight [1] of 3.2 g, a Liver weight [1] of 16 g and a Spleen weight [1] of 2.1 g. For the same substance, the body weight [1] was 371 g, the ALB [2] was 3.14 g/dL and the ALT [2] was 47 U/L. It also gave an AST [2] of 77 U/L, a BUN [2] of 23 mg/dL and a TBIL [2] of 0.13 mg/dL.
